Results: US20250281444A1, “COMPOUND WITH NEW SKELETON OF URSANE TRITERPENOID - ENT-KAURANE DITERPENOID DIMER, AND PREPARATION METHOD THEREOF AND APPLICATION THEREOF” (NANJING UNIVERSITY OF CHINESE MEDICINE, priority 2025, published 2025)
In brackets after ≈: the same amount, converted by molar mass. Read-outs that look alike come from different tables or passages of the source.

Experiments:
Type in all cases: cell-based
[1] = system: liver cancer cell line HepG2; assay: cells; settings: for IC50: 72 hours, CCK-8, read-out: IC50 ± SD, HepG2
Method: (§1) A pancreatic cancer cell line MIA PaCa-2, a colon cancer cell line HT-29, a lung cancer cell line A549, and a liver cancer cell line HepG2 (cell bank of Chinese Academy of Sciences) were cultured in a DMEM culture solution containing 10% fetal bovine serum (Gibco Company) at 37° C. under 5% CO2. HT-29, A549 and HepG2 cell culture media were supplemented with 10% FBS and 1% PSN, and a MIA PaCa-2 cell culture medium was supplemented with 10% FBS, 2.5% HS and 1% PSN.
(§2) Different volumes of DMEM culture media were added to dilute the compounds into different concentrations. Meanwhile, a DMEM culture medium containing 0.1% DMSO was used as a negative control.
(§3) Tumor cells were suspended in a culture medium, MIA PaCa-2, HT-29 and HepG2 cells were inoculated into a 96-well plate at a cell density of 8000, A549 cells were inoculated into a 96-well plate at a cell density of 3000 (100 μL/well), and the cells were cultured at 37° C. under 5% CO2 for 24 hours. In a logarithmic growth phase of the tumor cell lines, different concentrations of compounds (0, 0.004, 0.04, 0.4, 4, and 40 μM) were added to culture the cells at 37° C. under 5% CO2 for 72 hours.
(§4) After 72 hours of interaction between the drugs and the tumor cells, 10 μL of CCK-8 solution was added into each well to incubate the cells in a sterile incubator for 1 hour, and then the solution was taken out to determine an OD value by a microplate reader at a wavelength of 450 nm. IC50 (median inhibitory concentration) values of the compounds were calculated by GraphPad Prism 8 software, and 5-FU and Carboplatin were used as positive controls.

[2] = system: colon cancer cell line HT-29; assay: cells; settings: for IC50: 72 hours, CCK-8, read-out: IC50 ± SD, HT-29
Method: as §1, §2, §3, §4

[3] = system: lung cancer cell line A549; settings: for IC50: 72 hours, CCK-8, read-out: IC50 ± SD, A549
Method: as §1, §2, §3, §4

[4] = system: pancreatic cancer cell line MIA PaCa-2; settings: for IC50: 72 hours, CCK-8, read-out: IC50 ± SD, MIA PaCa-2
Method: as §1, §2, §3, §4

[5] = system: Helicobacter pylori H. pylori 129; assay: Determination of MIC (microdilution); settings: 72 hours of culture, R = drug-resistant strain
Method: (§5) Helicobacter pylori (G27 and HP129) and Candida albicans (SC5314 and C5) both came from Professor Hongkai Bi's laboratory of Nanjing Medical University. Main culture mediums and main reagents: Colombian culture medium, LB culture medium, selective antibiotics (metronidazole and amphotericin B), serum, and the like.
(§6) Colombian liquid culture medium: 29.0 g of Colombian liquid culture medium was accurately weighed, heated, and dissolved in 1000 mL of double distilled water, and the culture medium was subjected to autoclaved sterilization at 121° C. for 15 minutes after being completely dissolved for later use.
(§7) Colombian blood agar solid culture medium: 39.0 g of Colombian blood agar solid culture medium was accurately weighed, heated, and dissolved in 1000 mL of double distilled water, and the culture medium was subjected to autoclaved sterilization at 121° C. for 15 minutes after being completely dissolved, naturally cooled to about 50° C. after the autoclaved sterilization, quickly added with 5% sterile deflbrinated sheep blood, mixed evenly, and then poured into a sterile dish while the mixture was hot.
(§8) Standard strains of Helicobacter pylori were taken out of a refrigerator at −80° C. and placed at room temperature, 200 μL of standard strains were accurately sucked, transferred to a solid culture medium, and spread with an L-shaped glass rod, a culture dish loaded with the strains was put into a culture bag, then an AnaeroPack was put into the culture bag, and the culture bag was quickly sealed and then put into a constant-temperature incubator at 37° C. to culture the strains for 72 hours. After the end of culture, the Helicobacter pylori was identified first, then a bacterial lawn on the solid culture medium was scraped off, and the bacterial lawn was transferred into 50 mL of liquid culture medium to serve as an original bacterial solution.
(§9) (1) Sample solutions of the compounds 1 and 2 prepared in Embodiment 1 were configured to have a concentration of 2 mg/mL.
(§10) (2) In preparation by a MIC plate, a first well was added with 173.6 μL of culture medium and then added with 6.4 μL of antibacterial drug, and dilution was carried out by multiple proportions to a 7th well; and an 8th well was not added with the drug, but was reserved with 90 μL of culture medium to serve as a control with bacteria but no drug.
(§11) (3) In preparation of bacterial solution, the Helicobacter pylori growing at a logarithmic phase on a solid plate was made into a bacterial suspension with a BHI culture medium, an OD600 value of concentration of the bacterial suspension was adjusted to be 0.3 (1×10^8 CFU/mL), and then the bacterial suspension was diluted 10 times to reach 1×10^7 CFU/mL for later use.
(§12) (4) In inoculation, 10 μL of bacterial solution was added into the 1st to 8th wells (a concentration of the bacterial solution in each well was about 1.0×10^6 CFU/mL). Results were judged after 72 hours of culture. Drug concentrations from the 1st to 7th wells were 64 μg/mL, 32 μg/mL, 16 μg/mL, 8 μg/mL, 4 μg/mL, 2 μg/mL, and 1 μg/mL respectively.
(§13) (5) In result judgment, a lowest drug concentration capable of completely inhibiting the growth of bacteria in the wells was MIC. The test was only meaningful when the bacteria in the 8th well of the positive control well (without antibiotics) grew obviously. When there was a single drift in a microdilution method, a highest drug concentration capable of inhibiting the growth of bacteria should be recorded. If there were many drifts, the results should not be reported, and the test should be repeated. Each drug was tested repeatedly for 3 times.

[6] = system: Helicobacter pylori H. pylori G27; assay: Determination of MIC (microdilution); settings: 72 hours of culture
Method: as §5, §6, §7, §8, §9, §10, §11, §12, §13

Candida albicans SC5314 = assay: MIC, compound 1 alone and combined with amphotericin B
Text: as §5
(§14) LB culture medium: 15 g/L glucose, 10 g/L yeast extract, 5 g/L peptone, and 10 g/L sodium chloride.
as §9, §10, §12, §13

Candida albicans C5 = assay: as above
Text: as §5, §14, §9, §10, §12, §13

## O=c1[nH]cc(F)c(=O)[nH]1 [5-Fluorouracil, reference compound]
[1]; Homo sapiens, HepG2
  IC50: 4.82 ± 0.07 µM
[2]; Homo sapiens, HT-29
  IC50: 12.87 ± 0.04 µM

## COC(=O)C12CCC(C)(CC3C(=O)C45C(O)C3CCC4C34COC5(O)C(O)C3C(C)(C)CCC4O)C(C)=C1C1=CCC3C4(C)CC(O)C(O)C(C)(C)C4CCC3(C)C1(C)CC2 (centres unmarked) [Compound 2, Bisicacinol C]
[3]
  cytotoxic activity in words, A549: strong inhibitory activity
  IC50: 23.1 ± 0.12 µM
[4]
  IC50: > 40 µM
[1]
  IC50: > 40 µM
[2]
  cytotoxic activity in words, HT-29: strong inhibitory activity
  IC50: 33.35 ± 0.06 µM
[5]
  MIC, H. pylori 129: 32 µg/mL (≈ 37.7 µM)
[6]
  MIC, H. pylori G27: 16 µg/mL (≈ 18.8 µM)

## COC(=O)C12CCC(C)(CC3C(=O)C45C(O)C3CCC4C34COC5(O)C(O)C3C(C)(C)CCC4O)C(C)=C1C1=CCC3C4(C)CC(O)C(O)C(C)(C)C4CCC3(C)C1(C)CC2 (centres unmarked) [Compound 1, Bisicacinol B]
[3]
  cytotoxic activity in words, A549: strong activity
  IC50: 4.2 ± 0.24 µM
[4]
  cytotoxic activity in words, MIA PaCa-2: strong activity
  IC50: 13.1 ± 0.18 µM
[1]
  cytotoxic activity in words, HepG2: strong activity
  IC50: 14.84 ± 0.12 µM
[2]
  cytotoxic activity in words, HT-29: strong activity
  IC50: 14.95 ± 0.14 µM
[5]
  MIC, H. pylori 129: 32 µg/mL (≈ 37.7 µM)
[6]
  MIC, H. pylori G27: 16 µg/mL (≈ 18.8 µM)
Candida albicans SC5314; Candida albicans SC5314, compound alone
  inhibitory effect on growth in words, used separately: no significant inhibitory effect
Candida albicans SC5314; SC5314, combined with AMB
  Compound 1 MIC, combined use: 1 µg/mL
Candida albicans SC5314; SC5314, compound 1 + AMB
  FICI index after combination: ≤0.078
Candida albicans SC5314; SC5314, compound 1 alone
  Compound 1 MIC, separate use: >32 µg/mL
Candida albicans SC5314; SC5314, compound 1 with 0.5 μg/ml AMB
  MIC + 0.5 μg/ml AMB: 1 µg/mL
Candida albicans C5; C5, combined with AMB
  Compound 1 MIC, combined use: 1 µg/mL
Candida albicans C5; C5, compound 1 + AMB
  FICI index after combination: ≤0.078
Candida albicans C5; C5, compound 1 alone
  Compound 1 MIC, separate use: >32 µg/mL
Candida albicans C5; C5, compound 1 with 0.5 μg/ml AMB
  MIC + 0.5 μg/ml AMB: 1 µg/mL
Candida albicans C5; Candida albicans C5, compound alone
  inhibitory effect on growth in words, used separately: no significant inhibitory effect

## C[C@@H]1[C@H](O)[C@@H](C)/C=C/C=C/C=C/C=C/C=C/C=C/C=C/[C@H](O[C@@H]2O[C@H](C)[C@@H](O)[C@H](N)[C@@H]2O)C[C@@H]2O[C@](O)(C[C@@H](O)C[C@@H](O)[C@H](O)CC[C@@H](O)C[C@@H](O)CC(=O)O[C@H]1C)C[C@H](O)[C@H]2C(=O)O [AMB, amphotericin B, reference compound]
Candida albicans SC5314; SC5314, AMB alone
  AMB MIC, separate use: 2 µg/mL
Candida albicans C5; C5, AMB alone
  AMB MIC, separate use: 2 µg/mL

## Cc1ncc([N+](=O)[O-])n1CCO [MTZ, metronidazole, reference compound]
[5]; Helicobacter pylori
  MIC: 8 µg/mL (≈ 46.7 µM)
[6]; Helicobacter pylori
  MIC: 2 µg/mL (≈ 11.7 µM)

## N.N.O=C([O-])C1(C(=O)[O-])CCC1.[Pt+2] [Carboplatin, reference compound]
[3]
  IC50: > 40 µM
